Reference: ChEMBL document CHEMBL2074252, “The specific bisindolylmaleimide PKC-inhibitor GF 109203X efficiently modulates MRP-associated multiple drug resistance” (Biochem Biophys Res Commun, 1995)

Molecular target: Multidrug resistance-associated protein 1 (Homo sapiens, UniProt P33527)
Assay: TP_TRANSPORTER: inhibition of Rhodamine 123 efflux (R123: 0.8 ug/mL, GF109203X: 10 uM) in HL60/AR cells
Format: functional, cell-based

Multidrug resistance-associated protein 1, sequence (P33527 whole entry): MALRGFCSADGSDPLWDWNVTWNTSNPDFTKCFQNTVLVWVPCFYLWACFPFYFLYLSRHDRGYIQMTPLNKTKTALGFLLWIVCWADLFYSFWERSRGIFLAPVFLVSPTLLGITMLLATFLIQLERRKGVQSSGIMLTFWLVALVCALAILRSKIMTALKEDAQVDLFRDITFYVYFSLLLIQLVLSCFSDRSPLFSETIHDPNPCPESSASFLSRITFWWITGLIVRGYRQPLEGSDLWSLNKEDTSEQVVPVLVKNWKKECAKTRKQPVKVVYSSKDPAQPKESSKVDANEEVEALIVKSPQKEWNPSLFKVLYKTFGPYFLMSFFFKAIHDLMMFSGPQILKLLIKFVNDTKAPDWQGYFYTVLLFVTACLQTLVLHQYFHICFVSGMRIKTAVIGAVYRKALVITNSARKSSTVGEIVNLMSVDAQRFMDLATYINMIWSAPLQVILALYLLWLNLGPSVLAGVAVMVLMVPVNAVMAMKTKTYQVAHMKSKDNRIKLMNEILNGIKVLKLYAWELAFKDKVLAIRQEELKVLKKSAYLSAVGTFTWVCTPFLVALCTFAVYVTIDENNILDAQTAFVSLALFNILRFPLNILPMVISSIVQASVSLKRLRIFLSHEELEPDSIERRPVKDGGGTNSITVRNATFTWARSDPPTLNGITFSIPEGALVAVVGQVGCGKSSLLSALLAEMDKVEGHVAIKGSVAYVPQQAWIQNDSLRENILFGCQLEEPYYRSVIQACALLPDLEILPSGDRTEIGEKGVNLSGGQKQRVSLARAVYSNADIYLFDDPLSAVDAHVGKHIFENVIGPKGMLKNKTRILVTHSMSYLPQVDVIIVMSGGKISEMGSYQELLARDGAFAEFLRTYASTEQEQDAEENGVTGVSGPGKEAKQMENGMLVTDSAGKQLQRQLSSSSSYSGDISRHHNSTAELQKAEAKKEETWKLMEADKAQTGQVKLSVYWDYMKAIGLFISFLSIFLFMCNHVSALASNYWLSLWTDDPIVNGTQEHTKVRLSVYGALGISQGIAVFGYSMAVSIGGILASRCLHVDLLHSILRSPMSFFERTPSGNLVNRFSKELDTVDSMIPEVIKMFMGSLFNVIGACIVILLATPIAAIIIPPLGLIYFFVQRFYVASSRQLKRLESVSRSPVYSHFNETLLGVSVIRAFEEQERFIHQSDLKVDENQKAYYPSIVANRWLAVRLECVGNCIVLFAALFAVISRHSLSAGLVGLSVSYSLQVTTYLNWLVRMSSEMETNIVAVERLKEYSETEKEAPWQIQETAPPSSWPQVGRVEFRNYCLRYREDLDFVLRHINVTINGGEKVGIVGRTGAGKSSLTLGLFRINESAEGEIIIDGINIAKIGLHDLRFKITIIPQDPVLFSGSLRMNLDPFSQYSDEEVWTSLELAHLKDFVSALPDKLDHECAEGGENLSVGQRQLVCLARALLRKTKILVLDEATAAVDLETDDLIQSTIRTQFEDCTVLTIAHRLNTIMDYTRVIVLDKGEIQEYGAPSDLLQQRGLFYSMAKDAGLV

- Activity: inhibitor [+]
Structure (SMILES): CN(C)CCCn1cc(C2=C(c3c[nH]c4ccccc34)C(=O)NC2=O)c2ccccc21 [GF-109203]
